According to US8841277B2, “Methods for treating non-small cell lung cancer using 5-azacytidine” (Celgene Corporation, priority 2009, dated 2014):

Columns and labels:
NSCLC cell types = assay: Apoptosis (AnnexinV-FITC/7-AAD), summary; format: cell-based; details: summary of studies
From the text: For cell cycle distribution, cells were stained with the NIM-DAPI reagent (Beckman Coulter, Inc.; Fullerton, Calif.). For measurement of early- and late-apoptotic cell populations, cells were stained with AnnexinV-FITC and 7-AAD reagents (Beckman Coulter, Inc.). Samples were processed according to manufacturer's instructions and analyzed on a Cell Lab Quanta MPL flow cytometer (Beckman Coulter, Inc.). […] Data were also collected for untreated cells as control.

NSCLC cells = assay: Western analysis of DNA damage and cell death markers, summary; format: cell-based; details: H460, A549, H1299 studies
Experimental: These studies also examined apoptosis using an assay for PARP cleavage. Cells studied included H460, A549, and H1299 cells.
For western analyses of protein levels, cells were washed with PBS and lysed with RIPA buffer (Cell Signaling Technology, Inc.; Danvers, Mass.) containing 350 mM NaCl and 0.1% SDS. Cell lysates were sonicated with two 5-second bursts under low amplitude (20%) using the Digital Sonic Dismembrator (Thermo Fisher Scientific, Inc.; Waltham, Mass.). Proteins were separated on 4-12% Bis-Tris NuPAGE gels (Life Technologies Corporation) and transferred to nitrocellulose membranes. DNMT1, phos-Histone-H2AX(Ser139), total Histone-H2AX, cleaved-PARP, p21, p53, and alpha-tubulin were detected using the Li-Cor Odyssey imaging system (Li-Cor Biotechnology; Lincoln, Nebr.), following incubation with the appropriate primary and secondary antibodies. The phos-Histone-H2AX(Ser139), cleaved-PARP, and p21 antibodies were from Cell Signaling Technology, Inc. The p53 and total Histone-H2AX (C-20) antibodies were from Santa Cruz Biotechnology, Inc. (Santa Cruz, Calif.). The alpha-tubulin and DNMT1 antibodies were purchased from EMD Chemicals, Inc. (Gibbstown, N.J.) and Abcam, Inc. (Cambridge, Mass.), respectively. The goat anti-Rabbit IRDye 680, goat anti-Mouse IRDye 800CW, and donkey anti-Goat IRDye 800CW secondary antibodies were from Li-Cor Biotechnology.

[1] = administered at 15 mg/m^2; cited from earlier work

SMILES | Early- and late-apoptotic cell populations (AnnexinV/7-AAD) (NSCLC cell types) | Induction of DNA damage and cell death markers, concentration comparison (NSCLC cells) | Plasma levels [1] [µM]
Nc1ncn([C@@H]2O[C@H](CO)[C@@H](O)[C@H]2O)c(=O)n1 [AZA, 4-amino-1-β-D-ribofuranosyl-1,3,5-triazin-2(1H)-one] | dramatic increase in early-apoptotic (AnnexinV+ 7-AAD−) and late-apoptotic (AnnexinV+ 7-AAD+) cells | at lower concentrations than DAC | –
Nc1ncn([C@H]2C[C@H](O)[C@@H](CO)O2)c(=O)n1 [DAC, 5-aza-2′-deoxycytidine] | very slight increase in these cell populations | – | 0.5
